Test results: patent US20260308149A1, “NOVEL CARBOXAMIDE DERIVATIVES” (ANGELINI PHARMA S.P.A., priority 2023, published 2026)

What was measured:
human Kv7.2 = target: T1, human Kv7.2 (Homo sapiens, UniProt O43526); test: activation (potentiation) of Kv7.2 current, SyncroPatch 384 electrophysiology in CHO cells stably expressing human Kv7.2; format: cell-based; settings: human Kv7.2 in CHO cells; in presence of 5.6 μM zinc pyrithione; % activation relative to 30 μM ML-213
T1 construct: expressed in transfected cells
Summary of the method: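 CHO cells stably expressing human Kv7.2 were recorded by automated patch clamp, holding at −60 mV with steps to −30, 40 and −90 mV; current was read at the −90 mV step. Compounds were added after 5.6 μM zinc pyrithione pre-activation. % activation was normalised between 30 μM ML-213 (max) and TEA+XE-991 (leak), with EC50 from a logistic fit.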

[1] = system: Dup15q patient-derived induced pluripotent cells; settings: Fink et al., 2018; cited from earlier work
patients = settings: MDD patients; Tan et al., 2018; cited from earlier work
pain models = settings: Korsgaard et al., 2005; Xu et al., 2010; Wu et al., 2017; cited from earlier work
spreading depression = settings: Aiba and Noebels, 2021; cited from earlier work
[2] = system: preclinical models of tinnitus; settings: Li, Choi and Tzounopoulos, 2013; cited from earlier work
[3] = system: Patient-derived motor neurons; settings: ALS patient-derived motor neurons; Wainger et al., 2014; cited from earlier work
ALS patients = settings: clinical trials in ALS; Wainger et al., 2021; cited from earlier work
peripheral neuropathy = settings: preclinical; Nodera et al., 2011; cited from earlier work

T1 sequence (O43526 whole entry): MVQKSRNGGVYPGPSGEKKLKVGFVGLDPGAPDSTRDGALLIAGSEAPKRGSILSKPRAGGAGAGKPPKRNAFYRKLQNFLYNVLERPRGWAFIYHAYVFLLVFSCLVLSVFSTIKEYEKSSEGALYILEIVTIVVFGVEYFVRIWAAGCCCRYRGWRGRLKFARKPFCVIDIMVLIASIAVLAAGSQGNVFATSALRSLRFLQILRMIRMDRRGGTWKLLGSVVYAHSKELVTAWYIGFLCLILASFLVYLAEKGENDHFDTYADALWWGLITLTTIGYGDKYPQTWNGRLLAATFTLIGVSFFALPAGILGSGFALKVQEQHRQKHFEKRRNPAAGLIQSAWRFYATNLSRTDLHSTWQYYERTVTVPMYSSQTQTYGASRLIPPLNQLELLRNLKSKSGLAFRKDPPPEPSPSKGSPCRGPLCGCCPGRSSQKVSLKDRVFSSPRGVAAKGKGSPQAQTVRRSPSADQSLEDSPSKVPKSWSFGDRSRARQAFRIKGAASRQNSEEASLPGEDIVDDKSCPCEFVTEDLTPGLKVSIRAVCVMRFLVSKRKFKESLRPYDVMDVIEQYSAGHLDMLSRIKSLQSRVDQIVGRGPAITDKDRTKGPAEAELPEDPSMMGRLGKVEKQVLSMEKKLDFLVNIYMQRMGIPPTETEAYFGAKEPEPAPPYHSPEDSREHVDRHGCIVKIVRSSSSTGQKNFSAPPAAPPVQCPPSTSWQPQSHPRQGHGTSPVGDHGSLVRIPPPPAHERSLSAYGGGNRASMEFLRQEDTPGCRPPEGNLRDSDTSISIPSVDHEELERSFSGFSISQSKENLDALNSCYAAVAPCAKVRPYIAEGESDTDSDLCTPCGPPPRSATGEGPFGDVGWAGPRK

Cc1ccc(C2CC2C(=O)NC[C@@]2(c3cccc(C#N)c3)CCO2)o1 (stereo partly drawn) [Example 133, N-[[(2S)-2-(3-cyanophenyl)oxetan-2-yl]methyl]-2-(5-methyl-2-furyl)cyclopropanecarboxamide]
EC50 (human Kv7.2): 500 nM

N#Cc1cccc([C@]2(CNC(=O)C3CC3n3cccc3)CCO2)c1 (stereo partly drawn) [Example 135, N-[[(2S)-2-(3-cyanophenyl)oxetan-2-yl]methyl]-2-pyrrol-1-yl-cyclopropanecarboxamide]
EC50 (human Kv7.2): 1140 nM

N#Cc1cccc([C@]2(CNC(=O)C3CC3C3CCC(F)(F)CC3)CCO2)c1 (stereo partly drawn) [Example 136, N-[[(2S)-2-(3-cyanophenyl)oxetan-2-yl]methyl]-2-(4,4-difluorocyclohexyl)cyclopropanecarboxamide]
EC50 (human Kv7.2): 400 nM

CCOC(=O)Nc1ccc(NCc2ccc(F)cc2)cc1N [Retigabine]
effect on phenotype [1]: partially corrects their phenotype
antidepressant efficacy (patients): showed antidepressant efficacy in patients
reduction in depressive symptoms (patients): significant reduction in depressive symptoms
efficacy in preclinical pain models (pain models): some efficacy in preclinical pain models
efficacy in controlling spreading depression (spreading depression): shows efficacy in controlling spreading depression
prevention of the development of tinnitus [2]: prevents the development of tinnitus in preclinical models
rescue of membrane hyperexcitability phenotype [3]: rescues the phenotype
efficacy on functional biomarkers of ALS (ALS patients): showed efficacy on functional biomarkers of ALS
protection against peripheral neuropathy (peripheral neuropathy): protects against peripheral neuropathy
